The text below walks through data of patent US12378204B2, “Triazole compounds and preparation method therefor and use thereof” (WUHAN LL SCIENCE AND TECHNOLOGY DEVELOPMENT CO., LTD., priority 2019, dated 2025).

The nature of data set [1]: In vitro metabolic stability, human liver microsomes. Conditions: 1 mg/mL liver microsome protein, 37° C. The class given is in vitro ADME. As to the method: (§1) The in vitro metabolic stability of the compounds disclosed herein was determined through incubation of liver microsomes of various species. A proper amount of test compound was added into a liver microsome reaction system (1 mg/mL liver microsome protein, 25 U/mL glucose-6 phosphate dehydrogenase, 1 mM NADP, 6 mM D-glucose 6-phosphate and 5 mM MgCl2), and then the mixture was incubated in a water bath kettle at 37° C. to start reaction. At each time point, 100 μL of the reaction system was added into a centrifuge tube containing 400 μL of internal standard working solution (containing a 200 ng/mL solution of dexamethasone, diclofenac, tolbutamide and labetalol in acetonitrile) precooled at 0° C. so as to stop the reaction, and the mixture was then centrifuged at 10,000 g for 10 min at 4° C. The supernatant was collected for LC-MS assay so as to obtain the values of in vitro metabolic half-life of the test compounds in liver microsomes of various species.
In general terms: Liver microsomes are vesicles of endoplasmic reticulum, rich in cytochrome P450 enzymes.

For data set [2], the system named is A2058 (human melanoma cells). Nature of the data set: A2058 cell scratch assay (cell migration inhibition). Type of data set: cell-based. Conditions: A2058 scratch area 0 h vs 24 h, 10 μM LPA, read-out: Cell migration inhibition rate. As to the method: The activity of the compounds disclosed herein at the cell level in vitro is evaluated by A2058 (human melanoma cells, Beina Bio, BNCC341099) cell scratch assay. The inhibitory activity of the compounds against LPAR1 can be reflected by inhibition of cell scratch healing.
A2058 cells in a T75 cm^2 cell culture flask were digested and gently pipetted into single cells, adjusted to a cell density of 4×10^5 cells/mL, and then seeded into a 24-well plate. After the cell confluence reached 80%, the cell culture plate was taken out and the original medium was discarded. Serum-free medium was then added, and the cells were starved overnight in an incubator (37° C., 5% CO2). The cell culture plate was then taken out, and cell scratches were made along the diameter of the wells using a 200 μL pipette tip. The cell culture plate was then added with 500 μL of serum-free medium and then shaken gently to wash away the residual cells on the scratched surface, and this was repeated twice. The medium was discarded and 500 μL of 1% FBS medium containing the compound was then added, and the mixture was incubated at 37° C. for 30 min. […] Olympus CKX53 was used to observe the scratches, and MShot image analysis system was used to take pictures and measure the scratch area at 0 h. Then the cell culture plate was incubated in the incubator (37° C., 5% CO2). 24 h later, the scratches were observed again with Olympus CKX53, and MShot image analysis system was used to take pictures and measure the scratch area at 24 h. Cell migration inhibition rate was calculated according to the following formula: […]

The target of data set [3] is T1, hLPAR1 (human lysophosphatidic acid receptor 1) (Homo sapiens, UniProt Q92633).
T1 construct: expressed in transfected cells
T1 sequence (Q92633 whole entry): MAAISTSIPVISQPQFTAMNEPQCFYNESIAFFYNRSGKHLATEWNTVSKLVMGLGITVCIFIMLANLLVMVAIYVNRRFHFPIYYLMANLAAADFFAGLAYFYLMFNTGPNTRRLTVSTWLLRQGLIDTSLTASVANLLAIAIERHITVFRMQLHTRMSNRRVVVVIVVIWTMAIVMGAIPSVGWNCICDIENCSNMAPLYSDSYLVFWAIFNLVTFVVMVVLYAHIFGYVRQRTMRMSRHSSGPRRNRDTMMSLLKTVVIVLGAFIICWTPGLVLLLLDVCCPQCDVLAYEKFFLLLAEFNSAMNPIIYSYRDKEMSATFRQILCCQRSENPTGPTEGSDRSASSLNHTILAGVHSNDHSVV
Nature of the data set: FLIPR intracellular calcium assay, hLPAR1 expressed in CHO-K1 cells. The class given is cell-based. Conditions: antagonism of 1 μM LPA-induced calcium increase, CHO-K1 cells expressing hLPAR1; read-out: LPAR1 IC50. As to the method: The antagonist property of the compounds disclosed herein was determined using the FLIPR (fluorescence imaging plate reader) method, wherein the compounds are inhibitors for the intracellular calcium increase induced by activation of hLPAR1 (human lysophosphatidic acid receptor 1, accession No. NM_001401.4) expressed in CHO-K1 cells (Chinese hamster ovary cells K1, ATCC).
CHO-K1 cells stably expressing hLPAR1 were cultured in F-12 medium containing 10% FBS (fetal bovine serum, Gibco, 10099-141), 1% penicillin-streptomycin (Gibco, 15140-122) and 0.4 mg/mL hygromycin B (Gibco, 10687010) in a cell incubator (37° C., […]). During 18-24 h prior to the FLIPR experiment, cells at 250,000 cells/mL were seeded into a 96-well plate (25,000 cells/well) and incubated overnight in the cell incubator. On the day of the experiment, the medium was discarded and the cells were washed in a FLIPR buffer (0.3 mL of probenecid (Thermo, P36400), 0.6 mL of 1 M HEPES (Invitrogen, 15630080) and 29.1 mL of HBSS (Invitrogen, 14065056) per 30 mL of buffer). Each well was added with 75 μL of 1 mM Fluo-4 AM fluorescent dye (Thermo, F14202) and then the cells were subjected to dye-loading incubation at 37° C. for 1.0 h. The 96-well plate was then washed once with buffer, added with a buffer containing a test compound or vehicle at 50 μL per well and then incubated for 30 min at room temperature. The cell plate was then placed in the FLIPR for baseline fluorescence measurements (excitation at 485 nm and emission at 525-535 nm). An agonist (oleoyl-L-α-lysophosphatidic acid sodium salt (Sigma, L7260) at a final concentration of 1 μM) or a vehicle (ultrapure water) was then added at 50 μL/well, fluorescence values were measured for 2 min at 1-second intervals, and finally the output fluorescence counts were analyzed.
In general terms: A change in cytosolic calcium serves as a functional read-out for many receptors and channels.

A short description of data set [4]: In vitro metabolic stability, mouse liver microsomes. To be noted: 1 mg/mL liver microsome protein, 37° C. The class given is in vitro ADME. As to the method: as §1
The nature of data set [5]: In vitro cytotoxicity assay in HepG2 cells, CCK-8 method. The class given is cell-based. Conditions: human, 48 h incubation. As to the method:
In vitro cytotoxicity assay for the compounds disclosed herein was performed in HepG2 cells using the CCK-8 method. HepG2 cells (Beina Bio) in the logarithmic growth phase were collected, the concentration of cell suspension was adjusted, and then the cells were plated on a 96-well cell culture plate at 50,000 cells/well. • The cells were then incubated overnight in a cell incubator (5% CO2, 37° C.), and after 80-90% cell confluence was achieved, test compounds or vehicle (DMSO) at various concentration gradients were added after medium change. The resulting mixture was incubated in the cell incubator (5% CO2, 37° C.) for 48 h. After the treatment, the medium in the plate was discarded. The plate was washed twice with PBS, added with CCK-8 working solution (Beyotime) at 100 μL per well, and then incubated at 37° C. for 1.5 h in the dark. Absorbance at OD450nm was measured for each well on a microplate reader, and CC50 value of each compound was analyzed and calculated.
In general terms: Tetrazolium assays rely on reduction of a dye to a coloured formazan, in cell work by metabolically active cells.

Data set [6] is described as follows: In vitro metabolic stability, rat liver microsomes. To be noted: 1 mg/mL liver microsome protein, 37° C. Type of data set: in vitro ADME. Here is the method: as §1

Consider `CN(Cc1ccccc1)C(=O)/C=C/c1c(-c2ccc(O[C@H]3CCC[C@H](C(=O)O)C3)cc2)nnn1C` (racemic) [Compound 2], for which the half-life in data set [1], in data set [4] and in data set [6] was greater than 30 min each time. Moreover, in data set [2], the inhibition fell in the range of 0 to 30%. In addition, the half-inhibitory concentration (IC50) in data set [3] is 0.05 to 0.3 µM. For the same molecule, the CC50 at 48 h in data set [5] is greater than 200 µM.

`CN(Cc1ccccc1)C(=O)CCc1c(-c2ccc(O[C@H]3CCC[C@H](C(=O)O)C3)cc2)nnn1C` (racemic) [Compound 3]: the half-life in data set [1], in data set [4] and in data set [6] was greater than 30 min throughout. Further, in data set [2], the inhibition was 30 to 50%. Moreover, the 50% inhibitory concentration (IC50) in data set [3] fell in the range of 0.05 to 0.3 µM. Also, the CC50 at 48 h in data set [5] was greater than 200 µM.

For the molecule `CN(C(=O)NCc1c(-c2ccc(O[C@H]3CCC[C@H](C(=O)O)C3)c(C(F)(F)F)n2)nnn1C)C1CCCC1` (racemic) [Compound 26, (+/−)-(1S,3S)-3-((6-(5-((3-cyclopentyl-3-methylureido)methyl)-1-methyl-1H-1,2,3-triazol-4-yl)-2-(trifluoromethyl)pyridin-3-yl)oxo)cyclohexane-1-carboxylic acid], the half-life in data set [1], in data set [4] and in data set [6] was greater than 30 min in each case. For the same molecule, the inhibition in data set [2] lay within 30 to 50%. The 50% inhibitory concentration (IC50) in data set [3] was no more than 0.05 µM. This molecule showed a 50% cytotoxic concentration (CC50) at 48 h in data set [5] greater than 200 µM.

In the case of `CN(C(=O)CCc1nnn(C)c1-c1ccc(O[C@H]2CCC[C@H](C(=O)O)C2)c(C(F)(F)F)n1)C1CCCC1` (racemic) [Compound 27-B, (+/−)-(1S,3S)-3-((6-(4-(3-(cyclopentyl(methyl)amino)-3-carbonylpropyl)-1-methyl-1H-1,2,3-triazol-5-yl)-2-(trifluoromethyl)pyridin-3-yl)oxo)cyclohexane-1-carboxylic acid], in data set [2], the inhibition was in the range of 0 to 30%. Moreover, the 50% inhibitory concentration (IC50) in data set [3] was 0.3 to 10 µM. In data set [5], the cytotoxic concentration (CC50) at 48 h was greater than 200 µM.

As for `Cn1nnc(-c2ccc(O[C@H]3CCC[C@H](C(=O)O)C3)c(C(F)(F)F)n2)c1CNC(=O)OC1CCCC1` (racemic) [Compound 28, (+/−)-(1S,3S)-3-((6-(5-((((cyclopentyloxy)carbonyl)amino)methyl)-1-methyl-1H-1,2,3-triazol-4-yl)-2-(trifluoromethyl)pyridin-3-yl)oxo)cyclohexane-1-carboxylic acid], the inhibition in data set [2] lay within 50 to 70%. The IC50 in data set [3] lay within 0.05 to 0.3 µM. For the same molecule, in data set [5], the half-maximal cytotoxic concentration (CC50) at 48 h was greater than 200 µM.

As for `CN(C(=O)NCc1c(-c2ccc(O[C@H]3CCC[C@H](C(=O)O)C3)cc2)nnn1C)C1CCCC1` (racemic) [Compound 30, (+/−)-(1S,3S)-3-(4-(5-((3-cyclopentyl-3-methylureido)methyl)-1-methyl-1H-1,2,3-triazol-4-yl)phenoxy)cyclohexane-1-carboxylic acid], the inhibition in data set [2] fell in the range of 30 to 50%. Moreover, the IC50 in data set [3] lay in the range of 0.05 to 0.3 µM. Besides, the CC50 at 48 h in data set [5] was greater than 200 µM.

For the molecule `Cn1nnc(-c2ccc(O[C@H]3CCC[C@H](C(=O)O)C3)cc2)c1CNC(=O)Cc1ccccc1` [Compound 4, (1S,3S)-3-((4-(5-(2-N-phenylacetamido))-1-methyl-1H-1,2,3-triazol-4-yl)-phenoxy)cyclohexane-1-carboxylic acid], the inhibition in data set [2] lay within 30 to 50%. Moreover, the IC50 in data set [3] was in the range of 0.05 to 0.3 µM. Moreover, the CC50 at 48 h in data set [5] is greater than 200 µM.

Turning to `Cn1nnc(-c2ccc(O[C@H]3CCC[C@H](C(=O)O)C3)cc2)c1-c1cn(Cc2ccccc2)c(=O)o1` [Compound 8], the inhibition in data set [2] was in the range of 0 to 30%. The IC50 in data set [3] is 0.05 to 0.3 µM. The same molecule displayed a CC50 at 48 h in data set [5] greater than 200 µM.

Take `Cn1nnc(-c2ccc(O[C@H]3CCC[C@H](C(=O)O)C3)cc2)c1C1CN(Cc2ccccc2)C(=O)O1` (stereo partly drawn) [Compound 9, (1S,3S)-3-(4-(5-(3-benzyl-2-carbonyloxazolidin-5-yl)-1-methyl-1H-1,2,3-triazol-4-yl)phenoxy)cyclohexane-1-carboxylic acid]: in data set [2], the inhibition fell in the range of 30 to 50%. The IC50 in data set [3] lay in the range of 0.05 to 0.3 µM. Besides, in data set [5], the half-maximal cytotoxic concentration (CC50) at 48 h is greater than 200 µM.

`CN(Cc1ccccc1)C(=O)OCc1c(-c2ccc(O/C=C/C(=O)O)cc2)nnn1C` [Compound 10, (E)-3-(4-(5-(((benzyl(methyl)carbamoyl)oxo)methyl)-1-methyl-1H-1,2,3-triazol-4-yl)phenoxy)acrylic acid]: in data set [2], the inhibition was in the range of 30 to 50%. For the same molecule, the concentration for half-maximal inhibition (IC50) in data set [3] is 0.05 to 0.3 µM. In data set [5], this molecule displayed a CC50 at 48 h greater than 200 µM.

As to `CN(Cc1ccccc1)C(=O)OCc1c(-c2ccc(OCCC(=O)O)cc2)nnn1C` [Compound 11, 3-(4-(5-(((benzyl(methyl)carbamoyl)oxo)methyl)-1-methyl-1H-1,2,3-triazol-4-yl)phenoxy)propionic acid], the inhibition in data set [2] is 0 to 30%. The concentration for half-maximal inhibition (IC50) in data set [3] was 0.05 to 0.3 µM. The molecule also registered a CC50 at 48 h in data set [5] greater than 200 µM.

For the molecule `CN(Cc1ccccc1)C(=O)OCc1c(-c2ccc(N[C@H]3CCC[C@H](C(=O)O)C3)cc2)nnn1C` [Compound 13, 3-((4-(5-(((benzyl(methyl)carbamoyl)oxo)methyl)-1-methyl-1H-1,2,3-triazol-4-yl)phenyl)amino)cyc lohexanecarboxylic acid], in data set [2], the inhibition lay within 0 to 30%. Also, the half-maximal inhibitory concentration (IC50) in data set [3] lay within 0.05 to 0.3 µM. The molecule further displayed a 50% cytotoxic concentration (CC50) at 48 h in data set [5] greater than 200 µM.

For the molecule `CN(Cc1c(-c2ccc(O[C@H]3CCC[C@H](C(=O)O)C3)cc2)nnn1C)C(=O)OCc1ccccc1` [Compound 14, (1S,3S)-3-(4-(5-((((benzyloxy)carbonyl)(methyl)amino)methyl)-1-methyl-1H-1,2,3-triazol-4-yl)phenoxy)cyclohexane-1-carboxylic acid], in data set [2], the inhibition was in the range of 30 to 50%. Moreover, the IC50 in data set [3] is 0.05 to 0.3 µM. The same molecule came in with a CC50 at 48 h in data set [5] greater than 200 µM.

With `Cn1nnc(-c2ccc(O[C@H]3CCC[C@H](C(=O)O)C3)c(C(F)(F)F)n2)c1C1CN(C2CCCC2)C(=O)O1` (stereo partly drawn) [Compound 29], the inhibition in data set [2] lay in the range of 0 to 30%. The IC50 in data set [3] lay in the range of 0.3 to 10 µM. In addition, the CC50 at 48 h in data set [5] is greater than 200 µM.

A word on the half-life: it is the time in which the quantity being followed falls by half. Lower therefore signals fast loss. Usually IC50 stands for the midpoint of a concentration-inhibition curve. What is called CC50 is the concentration that lowers cell viability or growth by half. Low values mean greater toxicity to the cells, high ones lower toxicity to the cells.
